Laboratory results: patent US5852001A, “Method and compounds for inhibition of ribonucleases” (The Endowment for Research in Human Biology, priority 1996, dated 1998)
Read-outs that look alike come from different tables or passages of the source.

Tests used:
RNase A [1] = target: T1, RNase A (Bos taurus, UniProt P61823); details: pH 7; read-out: inhibition constant Ki (reported); cited from earlier work
T1 sequence (P61823 27-150): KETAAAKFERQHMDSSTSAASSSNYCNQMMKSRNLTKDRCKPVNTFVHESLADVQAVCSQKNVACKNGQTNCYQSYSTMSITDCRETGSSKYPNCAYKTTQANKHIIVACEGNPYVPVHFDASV

RNase A [2] = target: T1, RNase A; test: RNA protection assay (tRNA, agarose gel electrophoresis); assay type: biochemical, bovine; details: 0.5 mM inhibitor, 0.2 nM RNase A, pH 7.0, 20 minutes, 25° C.
Experimental: 3 μg of tRNA were incubated in 30 μl of 20 mM Hepes, 130 mM NaCl (pH 7.0) containing 30 μg/ml bovine serum albumin, 0.2 nM RNase A and the inhibitor. After 20 minutes of incubation at 25° C., the reaction mixture was analyzed by agarose gel electrophoresis and staining with ethidium bromide. This assay was chosen since a single endonucleolytic cleavage in a polymeric RNA molecule can produce a large variation of the molecular size which can be easily detected by agarose gel electrophoresis.

RNase A [3] = target: T1, RNase A; test: Inhibition of RNase A activity toward CpA, HPLC method
Experimental: Assays were performed in 60 μl of 0.2M Mes (pH 5.9) containing 50 μg/ml nuclease-free bovine serum albumin (obtained from Worthington), 20 μM CpA, and 23-320 pM RNase A. After 14-96 minutes of incubation at 25° C., substrate and products were quantitated by C18 /HPLC with a 20 minute linear gradient from 0 to 5.6% acetonitrile in 0.1% trifluoroacetic acid at a flow rate of 1.5 ml/min recording absorbance at 254 nm. Values of Km /kcat were then calculated (according to the method of Shapiro et al., 1986, Biochemistry 25:7255-7264) and plotted vs. the inhibitor concentration [I]. The Ki value is the -[I] intercept of a three- or four-point plot of Km /kcat, vs. [I] and was obtained by linear regression.

RNase A [4] = target: T1, RNase A; assay type: biochemical, bovine; details: for Ki: 25° C.
Experimental: Inhibition was assessed from the dependence of 1/v0 on [I], where v0 represents the velocity measured during the initial 5-10% of the enzymatic reaction and [I] is the inhibitor concentration. Since the substrate concentration used in these assays is well below Km, the -[I] intercept of such a plot should closely approximate Ki for simple inhibition mechanisms.

hRNase-4 = target: T2, hRNase-4 (Homo sapiens, UniProt P34096); test: Inhibition of human ribonuclease hRNase-4, method of Example IX
T2 sequence (P34096 29-147): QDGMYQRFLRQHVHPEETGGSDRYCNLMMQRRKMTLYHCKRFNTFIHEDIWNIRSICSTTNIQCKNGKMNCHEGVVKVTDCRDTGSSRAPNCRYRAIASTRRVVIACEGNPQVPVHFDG
Experimental: (§1) Assays were performed at 25° C. with the dinucleotide cytidylyl-(3',5')-guanosine (75 μM) as substrate in 0.2M Mes (pH 5.9), 0.2M Hepes (pH 7.0), or 0.2M Hepes (pH 8.0), containing 10 μg/ml bovine serum albumin. The decrease in absorbance at 286 nm following the addition of RNase A was continuously monitored. Inhibition was assessed from the dependence of 1/v0 on [I], where v0 represents the velocity measured during the initial 5-10% of the enzymatic reaction and [I] is the inhibitor concentration. Since the substrate concentration used in these assays is well below Km, the -[I] intercept of such a plot should closely approximate Ki for simple inhibition mechanisms.

hRNase-2 = hRNase-2 (Homo sapiens, UniProt P10153); test: Inhibition of human ribonuclease hRNase-2, method of Example IX; assay type: biochemical
Sequence of hRNase-2 (P10153 28-161): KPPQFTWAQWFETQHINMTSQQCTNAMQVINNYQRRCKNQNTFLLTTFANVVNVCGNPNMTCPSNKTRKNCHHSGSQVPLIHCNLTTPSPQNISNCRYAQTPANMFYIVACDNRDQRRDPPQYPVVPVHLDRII
Experimental: as §1

[5] = 0.2M Mes pH 5.9, 75 μM CpG, read-out: Ki at indicated pH, pH 5.9
[6] = 0.2M Hepes pH 7.0, 75 μM CpG, read-out: Ki at indicated pH, pH 7
[7] = 0.2M Hepes pH 8.0, 75 μM CpG, read-out: Ki at indicated pH, pH 8

Compound | Ki (RNase A [3]) [µM] | protection of tRNA from the catalytic action of RNase A (RNase A [2]) | Ki (RNase A [4]; [5]) [µM] | Ki (RNase A [4]; [6]) [µM] | Ki (RNase A [4]; [7]) [µM] | also measured
Cc1cn([C@H]2C[C@H](OP(=O)(O)OP(=O)(O)OC[C@H]3O[C@@H](n4cnc5c(N)ncnc54)C[C@@H]3O)[C@@H](CO)O2)c(=O)[nH]c1=O [TppdA, thymidine-(3'-Pβ)-5'-diphospho-2'-deoxyadenosine] |  |  | 3.5 |  |  | 
Nc1ncnc2c1ncn2[C@@H]1O[C@H](COP(=O)(O)OP(=O)(O)O[C@H]2C[C@H](n3ccc(=O)[nH]c3=O)O[C@@H]2CO)[C@@H](O)[C@H]1OP(=O)(O)O [dUppA2'p, 2'-deoxyuridine-(3'-Pβ)-5'-diphosphoadenosine-2'-phosphate] |  |  | 0.66 |  |  | fold higher Ki than that for dUppAp (RNase A [4]; pH 5.9): 5 fold
Nc1ncnc2c1ncn2[C@@H]1O[C@H](COP(=O)(O)OP(=O)(O)O[C@H]2C[C@H](n3ccc(=O)[nH]c3=O)O[C@@H]2CO)[C@@H](OP(=O)(O)O)[C@H]1O [dUppAp, 2'-deoxyuridine-(3'-Pβ)-5'-diphosphoadenosine-3'-phosphate] |  |  | 0.13 | 1.1 | 44 | 
Cc1cn([C@H]2C[C@H](OP(=O)(O)OP(=O)(O)OC[C@H]3O[C@@H](n4cnc5c(N)ncnc54)[C@H](O)[C@@H]3OP(=O)(O)O)[C@@H](COP(=O)(O)O)O2)c(=O)[nH]c1=O [pTppAp, 5'-phosphothymidine-(3'-Pβ)-5'-diphosphoadenosine-3'-phosphate] |  |  | 0.052 | 0.18 | 28 | Ki (hRNase-4): 0.27 µM; Ki (hRNase-2; pH 5.9, read-out: Ki at pH 5.9, hRNase-2): 0.5 µM; factor by which RNase A inhibition constant is lower than that for ppAp (RNase A [4]; pH 5.9): 4.6; factor by which RNase A inhibition constant is lower than that for ppAp (RNase A [4]; pH 7): 7.2; factor by which RNase A inhibition constant is lower than that for ppAp (RNase A [4]; pH 8): 7.8
Nc1ncnc2c1ncn2[C@@H]1O[C@H](COP(=O)(O)OP(=O)(O)O[C@H]2C[C@H](n3ccc(=O)[nH]c3=O)O[C@@H]2COP(=O)(O)O)[C@@H](OP(=O)(O)O)[C@H]1O [pdUppAp, 5'-phospho-2'-deoxyuridine-(3'-Pβ)-5'-diphosphoadenosine-3'-phosphate] |  |  | 0.035 | 0.21 | 22 | Ki (hRNase-4): 0.28 µM; Ki (hRNase-2): 0.22 µM; factor by which RNase A inhibition constant is lower than that for ppAp (RNase A [4]; pH 5.9): 6.9; factor by which RNase A inhibition constant is lower than that for ppAp (RNase A [4]; pH 7): 6.2; factor by which RNase A inhibition constant is lower than that for ppAp (RNase A [4]; pH 8): 9.9
Nc1ncnc2c1ncn2[C@@H]1O[C@H](COP(=O)(O)OP(=O)(O)O)[C@@H](OP(=O)(O)O)[C@H]1O [ppAp, 5'-diphosphoadenosine-3'-phosphate] | 0.24 | fully protecting | 0.24 | 1.3 | 217 | Ki (hRNase-2): 0.25 µM
uridine-vanadate |  | partial protection |  |  |  | Ki (RNase A [1]): 10 µM

The next lines start with results.

Ki (RNase A [3]) [µM] | Compound | protection of tRNA from the catalytic action of RNase A (RNase A [2]) | Ki (RNase A [4]; [5]) [µM] | Ki (RNase A [4]; [6]) [µM] | Ki (RNase A [4]; [7]) [µM] | also measured
3.1 | Nc1ccn([C@@H]2O[C@H](CO)[C@@H](O)[C@H]2OP(=O)(O)O)c(=O)n1 [2'-CMP, Cytidine 2'-monophosphate] | partial protection |  |  |  | Ki (RNase A [1]): 147 µM
1300 | Cc1cn([C@H]2C[C@H](OP(=O)(O)OC[C@H]3O[C@@H](n4cnc5c(N)ncnc54)C[C@@H]3O)[C@@H](CO)O2)c(=O)[nH]c1=O [TpdA, thymidylyl-(3'-5')-2'-deoxyadenosine] |  |  |  |  | 
5.6 | Nc1ncnc2c1ncn2[C@@H]1O[C@H](COP(=O)(O)O)[C@@H](OP(=O)(O)O)[C@H]1O [pAp, adenosine 3',5'-diphosphate] |  |  |  |  | 
